Source: publication PMC4177951, “Identification and Functional Expression of a Glutamate- and Avermectin-Gated Chloride Channel from Caligus rogercresseyi, a Southern Hemisphere Sea Louse Affecting Farmed Fish” (PLoS Pathogens, 2014)

What was measured:
[1] = biological target: T1, CrGluClα (Caligus rogercresseyi, UniProt A0A1W6LZ70); test: two-electrode voltage clamp in Xenopus oocytes expressing the channel; agonist concentration-response; format: cell-based
T1 construct: full-length ORF (clones CrGluCl-Vald13 and CrGluCl-Vald2)

[2] = biological target: T2, CrGluClα-T318A (Caligus rogercresseyi, UniProt A0A1W6LZ70, T318A); test: two-electrode voltage clamp in Xenopus oocytes; concentration-response of small evoked currents (Figure 9D); format: cell-based
T2 construct: full ORF in pCR3.1, homopentamer expressed in Xenopus laevis oocytes, T318A point mutant at extracellular end of M3
T2 sequence (A0A1W6LZ70 33-463 T318A): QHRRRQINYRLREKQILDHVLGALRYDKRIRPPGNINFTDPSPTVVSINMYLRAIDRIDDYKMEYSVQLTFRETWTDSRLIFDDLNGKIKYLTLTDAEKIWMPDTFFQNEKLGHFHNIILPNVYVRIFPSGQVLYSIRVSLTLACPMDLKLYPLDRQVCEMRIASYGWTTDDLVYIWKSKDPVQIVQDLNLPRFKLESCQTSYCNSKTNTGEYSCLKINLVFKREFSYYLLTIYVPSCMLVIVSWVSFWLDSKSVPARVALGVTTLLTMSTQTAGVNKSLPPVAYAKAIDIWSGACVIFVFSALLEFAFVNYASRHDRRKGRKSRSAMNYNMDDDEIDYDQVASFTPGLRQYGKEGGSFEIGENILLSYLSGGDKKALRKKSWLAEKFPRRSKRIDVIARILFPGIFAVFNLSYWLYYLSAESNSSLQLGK

T1 sequence (A0A1W6LZ70 entry or part of it): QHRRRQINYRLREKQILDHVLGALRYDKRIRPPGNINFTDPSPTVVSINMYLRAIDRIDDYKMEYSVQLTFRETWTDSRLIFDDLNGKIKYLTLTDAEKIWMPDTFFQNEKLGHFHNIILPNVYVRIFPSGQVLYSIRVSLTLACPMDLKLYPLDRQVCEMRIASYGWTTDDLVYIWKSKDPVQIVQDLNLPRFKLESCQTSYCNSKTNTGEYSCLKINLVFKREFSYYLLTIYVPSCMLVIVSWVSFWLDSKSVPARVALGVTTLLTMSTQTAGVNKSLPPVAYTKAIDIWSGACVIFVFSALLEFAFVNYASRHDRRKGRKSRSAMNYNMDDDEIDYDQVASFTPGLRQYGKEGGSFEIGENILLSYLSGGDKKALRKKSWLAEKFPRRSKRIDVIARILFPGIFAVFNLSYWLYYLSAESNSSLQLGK

N[C@@H](CCC(=O)O)C(=O)O [L-glutamate]
EC50 [1]: 6.89 ± 0.83 µM | concentration-response of evoked currents [2]: Maximal response was reached at lower glutamate concentrations in the CrGluClα-T318A mutant channel.
